Assay results taken from patent US5668161A, “Substituted thiazoles for the treatment of inflammation” (G.D. Searle & Co., priority 1996, dated 1997).

Experiments:
[1] = test system: carrageenan foot edema; experiment: Rat Carrageenan Foot Pad Edema Test; type: in vivo, rat (Male Sprague-Dawley); details: oral, 3 hours after carrageenan, read-out: RAT PAW EDEMA % Inhibition; for inhibition at 20 mg/kg: @ 20 mg/kg body weight
Protocol: Male Sprague-Dawley rats were selected in each group so that the average body weight was as close as possible. Rats were fasted with free access to water for over sixteen hours prior to the test. […] One hour later a subplantar injection of 0.1 mL of 1% solution of carrageenan/sterile 0.9% saline was administered and the volume of the injected foot was measured with a displacement plethysmometer connected to a pressure transducer with a digital indicator. Three hours after the injection of the carrageenan, the volume of the foot was again measured. […] Rat Carrageenan-induced Analgesia Test

[2] = target: T1, murine COX-II (Mus musculus, UniProt Q05769); experiment: biochemical
T1 sequence (Q05769 18-604): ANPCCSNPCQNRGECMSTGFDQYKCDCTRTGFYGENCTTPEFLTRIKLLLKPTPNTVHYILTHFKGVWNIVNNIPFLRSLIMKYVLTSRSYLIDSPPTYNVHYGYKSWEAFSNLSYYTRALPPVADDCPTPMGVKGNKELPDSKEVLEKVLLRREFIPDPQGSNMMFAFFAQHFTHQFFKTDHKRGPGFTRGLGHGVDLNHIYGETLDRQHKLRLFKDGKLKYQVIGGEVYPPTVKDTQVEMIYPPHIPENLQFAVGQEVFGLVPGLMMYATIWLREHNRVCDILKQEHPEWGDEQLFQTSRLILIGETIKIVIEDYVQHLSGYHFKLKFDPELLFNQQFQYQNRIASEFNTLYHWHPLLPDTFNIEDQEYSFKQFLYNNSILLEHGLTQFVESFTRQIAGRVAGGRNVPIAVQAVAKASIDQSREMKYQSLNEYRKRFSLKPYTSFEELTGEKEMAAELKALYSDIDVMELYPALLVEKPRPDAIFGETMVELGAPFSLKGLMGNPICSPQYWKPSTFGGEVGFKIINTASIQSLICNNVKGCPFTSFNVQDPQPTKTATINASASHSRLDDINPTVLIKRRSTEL

[3] = target: T2, murine COX-I (Mus musculus, UniProt P22437); experiment: COX I activity in vitro, murine (PGE2 by ELISA)
T2 sequence (P22437 27-602): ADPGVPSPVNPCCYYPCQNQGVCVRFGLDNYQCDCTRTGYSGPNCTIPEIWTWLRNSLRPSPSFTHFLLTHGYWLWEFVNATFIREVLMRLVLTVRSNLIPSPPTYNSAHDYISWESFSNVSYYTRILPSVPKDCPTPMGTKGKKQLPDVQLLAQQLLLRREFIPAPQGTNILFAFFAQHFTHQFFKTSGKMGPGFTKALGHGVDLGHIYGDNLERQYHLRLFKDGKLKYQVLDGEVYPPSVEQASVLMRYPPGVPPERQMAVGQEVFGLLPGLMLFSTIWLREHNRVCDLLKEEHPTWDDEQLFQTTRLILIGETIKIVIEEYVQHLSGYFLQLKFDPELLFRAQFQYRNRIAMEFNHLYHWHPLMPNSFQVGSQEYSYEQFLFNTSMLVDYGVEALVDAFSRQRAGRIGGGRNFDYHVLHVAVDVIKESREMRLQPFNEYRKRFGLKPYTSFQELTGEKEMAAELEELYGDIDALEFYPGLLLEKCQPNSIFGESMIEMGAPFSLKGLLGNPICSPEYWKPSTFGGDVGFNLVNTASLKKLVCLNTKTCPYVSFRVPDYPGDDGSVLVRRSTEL

Row | Compound | IC50 [2] [nM] | IC50 [3] [nM] | inhibition at 20 mg/kg [1] [%] | inhibition at 10 mg/kg [1] [%]
1 | CS(=O)(=O)c1ccc(-c2sc(CS(=O)(=O)c3cccs3)nc2-c2ccc(F)cc2)cc1 [Example 13] | 1200 | > 30000 |  | 
2 | CCOC(=O)c1nc(-c2ccc(F)cc2)c(-c2ccc(S(C)(=O)=O)cc2)s1 [Example 17, Ethyl [4-(4-fluorophenyl)-5-(4-methylsulfonylphenyl)-2-thiazolyl]carboxylate] | 300 | > 10000 |  | 
3 | CS(=O)(=O)c1ccc(-c2sc(Cc3ccccc3)nc2-c2ccc(F)cc2)cc1 [Example 19, 2-Benzyl-4-(4-fluorophenyl)-5-(4-methylsulfonylphenyl)thiazole] |  | 400 |  | 
4 | Cc1nc(-c2ccc(S(C)(=O)=O)cc2)c(-c2ccc(F)cc2)s1 [Example 20, 5-(4-Fluorophenyl)-4-(4-methylsulfonylphenyl)-2-methylthiazole] | 100 | > 10000 | 48 | 
5 | CS(=O)(=O)c1ccc(-c2scnc2-c2ccc(F)cc2)cc1 [Example 22, 4-(4-Fluorophenyl)-5-(4-methylsulfonylphenyl)thiazole] | 11200 | > 100000 |  | 
6 | CS(=O)(=O)c1ccc(-c2sc(-c3cccs3)nc2-c2ccc(F)cc2)cc1 [Example 24, 4-(4-Fluorophenyl)-5-(4-methylsulfonylphenyl)-2-(2-thienyl)thiazole] | < 100 | > 10000 |  | 20
7 | CS(=O)(=O)c1ccc(-c2sc(CC#N)nc2-c2ccc(F)cc2)cc1 [Example 27, 2-(Cyanomethyl)-4-(4-fluorophenyl)-5-(4-methylsulfonylphenyl)thiazole] | 200 | > 10000 |  | 
8 | Cc1nc(-c2ccc(F)cc2)c(-c2ccc(S(C)(=O)=O)cc2)s1 [Example 28, 4-(4-Fluorophenyl)-5-(4-methylsulfonylphenyl)-2-methylthiazole] | < 100 | > 10000 |  | 
9 | CS(=O)(=O)c1ccc(-c2sc(-c3ccccc3Cl)nc2-c2ccccc2F)cc1 [Example 35, 2-(2-Chlorophenyl)-4-(2-fluorophenyl)-5-(4-methylsulfonylphenyl)thiazole] |  | > 100000 | 16 | 
10 | CS(=O)(=O)c1ccc(-c2sc(COc3cccc(Cl)c3)nc2-c2ccc(F)cc2)cc1 [Example 37, 2-((3-Chlorophenoxy)methyl)-4-(4-fluorophenyl)-5-(4-methylsulfonylphenyl)thiazole] | < 100 | > 100000 | 9 | 
11 | CCc1nc(-c2ccc(F)cc2)c(-c2ccc(S(C)(=O)=O)cc2)s1 [Example 42, 2-Ethyl-4-(4-fluorophenyl)-5-(4-methylsulfonylphenyl)thiazole] | < 100 | 1900 |  | 
12 | CCCCCCNc1nc(-c2ccc(F)cc2)c(-c2ccc(S(C)(=O)=O)cc2)s1 [Example 46, 4-(4-Fluorophenyl)-2-n-hexylamino-5-(4-methylsulfonylphenyl)thiazole] | < 100 | 1400 |  | 25
13 | CCCCNc1nc(-c2ccc(F)cc2)c(-c2ccc(S(C)(=O)=O)cc2)s1 [Example 47, 2-Butylamino-4-(4-fluorophenyl)-5-(4-methylsulfonylphenyl)thiazole] | < 100 | 1400 | 12 | 
14 | COc1ccc(-c2nc(-c3ccc(F)cc3)c(-c3ccc(S(C)(=O)=O)cc3)s2)cc1 [Example 49, 4-(4-Fluorophenyl)-5-(4-methylsulfonylphenyl)-2-(4-methoxyphenyl)thiazole] | 300 | > 10000 |  | 6
15 | CCNc1nc(-c2ccc(F)cc2)c(-c2ccc(S(C)(=O)=O)cc2)s1 [Example 50, 2-Ethylamino-4-(4-fluorophenyl)-5-(4-methylsulfonylphenyl)-thiazole] | 300 | > 10000 |  | 11
16 | CCOC(=O)c1ccc(Nc2nc(-c3ccc(F)cc3)c(-c3ccc(S(C)(=O)=O)cc3)s2)cc1 [Example 55, Ethyl [4-[4-(4-fluorophenyl)-5-(4-methylsulfonylphenyl)-2-thiazolyl]amino]benzoate] | 3500 | > 10000 |  | 

The next lines start with results.

Row | IC50 [2] [nM] | IC50 [3] [nM] | Compound | inhibition at 20 mg/kg [1] [%] | inhibition at 10 mg/kg [1] [%]
17 | 200 | > 100000 | CS(=O)(=O)c1ccc(-c2sc(-c3ccncc3)nc2-c2ccc(F)cc2)cc1 [Example 8, 4-(4-Fluorophenyl)-5-(4-methylsulfonylphenyl)-2-(4-pyridyl)thiazole] | 12 | 
18 | 150 | 5400 | CC(C)(C)c1nc(-c2ccc(F)cc2)c(-c2ccc(S(C)(=O)=O)cc2)s1 [Example 18, 2-(tert-Butyl)-4-(4-fluorophenyl)-5-(4-methylsulfonylphenyl)thiazole] |  | 
19 |  | > 100000 | CS(=O)(=O)c1ccc(-c2sc(-c3cccnc3)nc2-c2ccc(F)cc2)cc1 [Example 26, 4-(4-Fluorophenyl)-5-(4-methylsulfonylphenyl)-2-(3-pyridyl)thiazole] |  | 
20 | 300 | 900 | CS(=O)(=O)c1ccc(-c2sc(N3CCCCC3)nc2-c2ccc(F)cc2)cc1 [Example 30, 4-(4-Fluorophenyl)-5-(4-methylsulfonylphenyl)-2-(1-piperidinyl)thiazole] |  | 
21 | 100 | > 10000 | CCCNc1nc(-c2ccc(F)cc2)c(-c2ccc(S(C)(=O)=O)cc2)s1 [Example 31, 4-(4-Fluorophenyl)-5-(4-methylsulfonylphenyl)-2-(1-propylamino)thiazole] |  | 27.5
22 | 300 | > 10000 | Cc1nc(-c2nc(-c3ccc(F)cc3)c(-c3ccc(S(C)(=O)=O)cc3)s2)cs1 [Example 39, 4-(4-Fluorophenyl)-5-[4-(methylsulfonyl)phenyl]-2-(2-methyl-4-thiazolyl)thiazole] | 19 | 
23 | 1300 | 100000 | CS(=O)(=O)c1ccc(-c2sc(CCCc3ccccc3)nc2-c2ccc(F)cc2)cc1 [Example 43, 4-(4-Fluorophenyl)-5-(4-methylsulfonylphenyl)-2-(3-phenylpropyl)thiazole] |  | 
24 |  | 1700 | CS(=O)(=O)c1ccc(-c2sc(CCc3ccccc3)nc2-c2ccc(F)cc2)cc1 [Example 44, 4-(4-Fluorophenyl)-5-(4-methylsulfonylphenyl)-2-(2-phenylethyl)thiazole] |  | 
25 | < 100 | > 100000 | CS(=O)(=O)c1ccc(-c2sc(-c3ccccc3)nc2-c2ccc(F)cc2)cc1 [Example 45, 4-(4-Fluorophenyl)-5-(4-methylsulfonylphenyl)-2-phenylthiazole] |  | 19
26 | 300 | > 10000 | CNc1nc(-c2ccc(F)cc2)c(-c2ccc(S(C)(=O)=O)cc2)s1 [Example 48, 4-(4-Fluorophenyl)-5-(4-methylsulfonylphenyl)-2-methylaminothiazole] |  | 15
27 | 900 | 200 | CS(=O)(=O)c1ccc(-c2sc(Nc3ccc(C#N)cc3)nc2-c2ccc(F)cc2)cc1 [Example 53, 2-(4-Cyanophenylamino)-4-(4-fluorophenyl)-5-(4-methylsulfonylphenyl)-thiazole] |  | 
28 | 1300 | 1100 | CCOC(=O)c1cccc(Nc2nc(-c3ccc(F)cc3)c(-c3ccc(S(C)(=O)=O)cc3)s2)c1 [Example 54, Ethyl-[3-[4-(4-fluorophenyl)-5-(4-methylsulfonylphenyl)-2-thiazolyl]amino]benzoate] |  | 
